{"source": "PubChem BioAssay AID1963837", "about": "(Molecular Pharmacology Branch, DTP, NCI, 2024)", "note": "pIC50: −log10 of the molar value. “And” between values parts separate entries of the source, which are not always exact repeats. Equal values may be shown once.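 For viability, T/C in this document: spheroids exposed to drugs for seven days before readout.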", "data": [{"test_system": "843126-344-R-J1-PDC complex spheroid viability", "assay": "Anticancer human tumor 843126-344-R-J1-PDC patient-derived melanoma cell line growth inhibition [POLQ]", "settings": "compound 10 µM; stronger effect = lower value", "protocol": "(§1) Multicellular complex tumor spheroid response to Polymerase (POL) inhibitors (novobiocin, ART-558, RP6685) in combination with a variety of drugs and investigational agents in selected tumor cell lines\n(§2) The POL inhibitors (novobiocin, ART-558, and RP6685) were evaluated both individually and in combination with standard of care and investigational anticancer small molecules within a complex spheroid model of solid tumors. . Complex spheroids include a stromal component modeled by human endothelial cells (HUVEC) and fibroblasts modeled by human mesenchymal stem cells (MSCs). The concentration ranges selected for each drug and investigational agent were based upon clinically achievable concentrations if the clinical Cmax of the agent was known.\n(§3) Compounds. The drugs and investigational agents: novobiocin (NSC847541), ART-558 (NSC835418), RP-6685 (NSC848927), peposertib (NSC802822), ceralasertib (NSC780249), elimusertib (NSC800525), camonsertib (NSC841442), AZD-1390 (NSC803789), olaparib (NSC753686), talazoparib (NSC767125), rucaparib (NSC756644), sotorasib (NSC818433), MRTX-1133 (NSC836407), SN-38 (NSC673596), topotecan (NSC609699), epotoside (NSC141540), doxorubicin (NSC123127), gemcitabine (NSC613327), 5-fluorouracil (NSC19893), paclitaxel (NSC125973), vemurafenib (NSC761431), MSA-2 (NSC828583), SN-011 (NSC837082), adavosertib (NSC754352), prexasertib (NSC758257), carboplatin (NSC241240) and oxaliplatin (NSC266046), were obtained from the National Cancer Institute (NCI) Developmental Therapeutics Program Chemical Repository (21). The FDA-approved anticancer drug set is available from the Developmental Therapeutics Program at https://dtp.cancer.gov/organization/dscb/obtaining/. […] The stock solutions were prepared in dimethyl sulfoxide (DMSO, Sigma-Aldrich, St. Louis, MO, cat. D2650), except for the platinum compounds which were prepared in saline (Quality Biological, Gaithersburg, MD, cat. 114-055-101), at 800-fold the tested concentration and stored at -70 degrees C prior to their use. All drugs and investigational agents were tested over a range starting from a high concentration at or near the clinical Cmax and decreasing in half-log increments. If the clinical Cmax for an agent had not been determined, the highest concentration tested was 10 microM, except for SN-38, which was tested at a high concentration of 1 microM.\n(§4) Cell Culture. All cells were maintained in an incubator at 37 degrees C and 5% CO2 with 95% humidity. The PDC lines were cultured according to standard operating procedures established by the NCI PDMR (https://pdmr.cancer.gov). Table 3 of the manuscript, lists the cell lines along with the number of the three cell types plated to form the mct-spheroids and media for tumor cell growth. After thawing, all PDC lines, except 997537-175-T-J1-PDC and 415267-285-R-J2-PDC, were cultured in Matrigel-coated flasks prepared with a working solution of 1X Ham's F-12 nutrient mix, without supplementation (Thermo Fisher Scientific, cat. 11765054), 100 U/mL penicillin-streptomycin (Thermo Fisher Scientific, cat. 15140122), and 2.5% Matrigel (Corning Inc., Corning, NY, cat. 354248) for the first three passages. The two PDC lines 997537-175-T-J1-PDC and 415267-285-R-J2-PDC were cultured on uncoated flasks. The 857933-349-R-J2-PDC line was cultured in 6C/Colon 1B media containing advanced DMEM/F-12 (Thermo Fisher Scientific, cat. 12634028), 10 mM HEPES (Thermo Fisher Scientific, cat. 15630080), 1X GlutaMAX supplement (Thermo Fisher Scientific, cat. 35050061), 0.1 mg/mL primocin (InvivoGen, San Diego, CA, cat. ant-pm-2), 10% defined fetal bovine serum, heat inactivated (HyClone Laboratories Inc., Logan, UT, cat. SH30070.03HI), 50% L-WRN conditioned media (ATCC, cat. CRL-3276), 1.25 mM N-Acetyl-L-cysteine (Sigma-Aldrich, cat. A9165), 10 mM nicotinamide (Sigma-Aldrich, cat. N0636), 1X B-27 supplement (Thermo Fisher Scientific, cat. 17504044), 1X N-2 supplement (Thermo Fisher Scientific, cat. […]", "values": [{"smiles": "CC1COCCN1c1cc(-c2ccnn2C)c2ccnc(-c3ccn[nH]3)c2n1", "note": "(stereo not drawn)", "viability, T/C": "33.1% and 23.9% and 32.7%"}]}, {"test_system": "843126-344-R-J1-PDC complex spheroid viability", "assay": "Anticancer human tumor 843126-344-R-J1-PDC cell line growth inhibition [POLQ]", "settings": "compound alone; run of 01/08/2024", "protocol": "as §1, §2, §3, §4", "values": [{"smiles": "Cc1cccc(N(C)C(=O)C2C(O)CCN2c2nc(C)cc(C(F)(F)F)c2C#N)c1", "note": "(stereo not drawn)", "pIC50": "< 5.00"}, {"smiles": "COC1C(OC(N)=O)C(O)C(Oc2ccc3c(O)c(NC(=O)c4ccc(O)c(CC=C(C)C)c4)c(=O)oc3c2C)OC1(C)C", "note": "(stereo not drawn)", "pIC50": "< 5.00"}]}, {"test_system": "843126-344-R-J1-PDC complex spheroid viability", "assay": "Anticancer human tumor 843126-344-R-J1-PDC cell line growth inhibition [POLQ]", "settings": "compound alone; run of 01/19/2024", "protocol": "as §1, §2, §3, §4", "values": [{"smiles": "Cc1cccc(N(C)C(=O)C2C(O)CCN2c2nc(C)cc(C(F)(F)F)c2C#N)c1", "note": "(stereo not drawn)", "pIC50": "< 5.00"}, {"smiles": "Nc1ccc(C#CCN(C(=O)Cc2ncc(C(F)(F)F)cc2C(F)(F)F)c2ccc(F)cc2)nn1", "pIC50": "< 5.00"}]}, {"test_system": "843126-344-R-J1-PDC complex spheroid viability", "assay": "Anticancer human tumor 843126-344-R-J1-PDC cell line growth inhibition [POLQ]", "settings": "curve of compound", "protocol": "as §1, §2, §3, §4", "values": [{"smiles": "COc1cc2cc(C(=O)CCC(=O)O)sc2cc1OC", "pIC50": "< 5.00"}, {"smiles": "CCc1cc2c(N3CCc4c(cc(Cn5ccnc5)cc4-c4cn(C)nc4C(F)(F)F)C3=O)ccnc2c(OC)n1", "pIC50": "< 5.00"}, {"smiles": "COc1cc(C2c3cc4c(cc3C(OC3OC5COC(C)OC5C(O)C3O)C3COC(=O)C23)OCO4)cc(OC)c1O", "note": "(stereo not drawn)", "pIC50": "< 5.00 and 5.17"}, {"smiles": "C#Cc1c(F)ccc2cc(O)cc(-c3ncc4c(N5CC6CCC(C5)N6)nc(OCC56CCCN5CC(F)C6)nc4c3F)c12", "note": "(stereo not drawn)", "pIC50": "< 5.00"}, {"smiles": "O=C(Nc1ccc(O)c(NS(=O)(=O)c2ccc(F)cc2)c1)c1ccc(-c2ccccc2)cc1", "pIC50": "< 5.00"}, {"smiles": "CC1COCCN1c1cc(-c2ccnn2C)c2ccnc(-c3ccn[nH]3)c2n1", "note": "(stereo not drawn)", "pIC50": "6.07 and 6.08 and 6.04"}]}, {"test_system": "843126-344-R-J1-PDC complex spheroid viability", "assay": "Anticancer human tumor 843126-344-R-J1-PDC cell line growth inhibition [POLQ]", "settings": "curve of first compound; second compound 0.0316 µM", "protocol": "as §1, §2, §3, §4", "values": [{"smiles": "O=C(Nc1ccc(O)c(NS(=O)(=O)c2ccc(F)cc2)c1)c1ccc(-c2ccccc2)cc1", "note": "+ Cc1cccc(N(C)C(=O)C2C(O)CCN2c2nc(C)cc(C(F)(F)F)c2C#N)c1", "pIC50": "< 5.00"}, {"smiles": "COc1cccc2c1C(=O)c1c(O)c3c(c(O)c1C2=O)CC(O)(C(=O)CO)CC3OC1CC(N)C(O)C(C)O1", "note": "(stereo not drawn) + Cc1cccc(N(C)C(=O)C2C(O)CCN2c2nc(C)cc(C(F)(F)F)c2C#N)c1", "pIC50": 6.75}, {"smiles": "COc1ccc([C@@H](O)c2cc(-c3ncnc4cc(N5CCOCC5)ccc34)c(F)cc2Cl)nn1", "note": "+ Cc1cccc(N(C)C(=O)C2C(O)CCN2c2nc(C)cc(C(F)(F)F)c2C#N)c1", "pIC50": "< 5.00"}]}, {"test_system": "843126-344-R-J1-PDC complex spheroid viability", "assay": "Anticancer human tumor 843126-344-R-J1-PDC cell line growth inhibition [POLQ]", "settings": "curve of first compound; second compound 0.1 µM", "protocol": "as §1, §2, §3, §4", "values": [{"smiles": "O=C(Nc1ccc(O)c(NS(=O)(=O)c2ccc(F)cc2)c1)c1ccc(-c2ccccc2)cc1", "note": "+ Cc1cccc(N(C)C(=O)C2C(O)CCN2c2nc(C)cc(C(F)(F)F)c2C#N)c1", "pIC50": "< 5.00"}, {"smiles": "COc1cccc2c1C(=O)c1c(O)c3c(c(O)c1C2=O)CC(O)(C(=O)CO)CC3OC1CC(N)C(O)C(C)O1", "note": "(stereo not drawn) + Cc1cccc(N(C)C(=O)C2C(O)CCN2c2nc(C)cc(C(F)(F)F)c2C#N)c1", "pIC50": 6.61}, {"smiles": "COc1ccc([C@@H](O)c2cc(-c3ncnc4cc(N5CCOCC5)ccc34)c(F)cc2Cl)nn1", "note": "+ Cc1cccc(N(C)C(=O)C2C(O)CCN2c2nc(C)cc(C(F)(F)F)c2C#N)c1", "pIC50": "< 5.00"}]}, {"test_system": "843126-344-R-J1-PDC complex spheroid viability", "assay": "Anticancer human tumor 843126-344-R-J1-PDC cell line growth inhibition [POLQ]", "settings": "curve of first compound; second compound 0.316 µM", "protocol": "as §1, §2, §3, §4", "values": [{"smiles": "O=C(Nc1ccc(O)c(NS(=O)(=O)c2ccc(F)cc2)c1)c1ccc(-c2ccccc2)cc1", "note": "+ Cc1cccc(N(C)C(=O)C2C(O)CCN2c2nc(C)cc(C(F)(F)F)c2C#N)c1", "pIC50": "< 5.00"}, {"smiles": "COc1cccc2c1C(=O)c1c(O)c3c(c(O)c1C2=O)CC(O)(C(=O)CO)CC3OC1CC(N)C(O)C(C)O1", "note": "(stereo not drawn) + Cc1cccc(N(C)C(=O)C2C(O)CCN2c2nc(C)cc(C(F)(F)F)c2C#N)c1", "pIC50": 6.77}, {"smiles": "COc1ccc([C@@H](O)c2cc(-c3ncnc4cc(N5CCOCC5)ccc34)c(F)cc2Cl)nn1", "note": "+ Cc1cccc(N(C)C(=O)C2C(O)CCN2c2nc(C)cc(C(F)(F)F)c2C#N)c1", "pIC50": "< 5.00"}]}, {"test_system": "843126-344-R-J1-PDC complex spheroid viability", "assay": "Anticancer human tumor 843126-344-R-J1-PDC cell line growth inhibition [POLQ]", "settings": "curve of first compound; second compound 1 µM", "protocol": "as §1, §2, §3, §4", "values": [{"smiles": "O=C(Nc1ccc(O)c(NS(=O)(=O)c2ccc(F)cc2)c1)c1ccc(-c2ccccc2)cc1", "note": "+ Cc1cccc(N(C)C(=O)C2C(O)CCN2c2nc(C)cc(C(F)(F)F)c2C#N)c1", "pIC50": "< 5.00"}, {"smiles": "COc1cccc2c1C(=O)c1c(O)c3c(c(O)c1C2=O)CC(O)(C(=O)CO)CC3OC1CC(N)C(O)C(C)O1", "note": "(stereo not drawn) + Cc1cccc(N(C)C(=O)C2C(O)CCN2c2nc(C)cc(C(F)(F)F)c2C#N)c1", "pIC50": 6.69}, {"smiles": "COc1ccc([C@@H](O)c2cc(-c3ncnc4cc(N5CCOCC5)ccc34)c(F)cc2Cl)nn1", "note": "+ Cc1cccc(N(C)C(=O)C2C(O)CCN2c2nc(C)cc(C(F)(F)F)c2C#N)c1", "pIC50": "< 5.00"}]}]}
